What was measured:
Assay in all cases: relative viability (nuclei count vs DMSO), 5 days (fraction); higher = more cells survive
Ibrutinib + Lapatinib = compound: C=CC(=O)N1CCC[C@@H](n2nc(-c3ccc(Oc4ccccc4)cc3)c3c(N)ncnc32)C1 [Ibrutinib] + CS(=O)(=O)CCNCc1ccc(-c2ccc3ncnc(Nc4ccc(OCc5cccc(F)c5)c(Cl)c4)c3c2)o1 [Lapatinib] (partner 2 µM)
Method in brief: (§1)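 Values are medians from duplicate plates. Each reflects relative viability, defined as the nuclei count of treated wells over that of vehicle wells. Lung cancer cell lines in 1536-well plates were pin-tool dosed one day after seeding with one drug alone or with a fixed anchor-drug dose plus five library-drug doses (not always all listed) in √10 steps, then fixed, stained and imaged at 4× after 5 days.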

BMX-IN-1 + Trametinib = compound: C=CC(=O)Nc1cc(-n2c(=O)ccc3cnc4ccc(-c5ccc(NS(C)(=O)=O)cc5)cc4c32)ccc1C [BMX-IN-1] + CC(=O)Nc1cccc(-n2c(=O)n(C3CC3)c(=O)c3c(Nc4ccc(I)cc4F)n(C)c(=O)c(C)c32)c1 [Trametinib] (partner 0.02 µM)
Method in brief: as §1

BMX-IN-1 + Pictilisib = compound: C=CC(=O)Nc1cc(-n2c(=O)ccc3cnc4ccc(-c5ccc(NS(C)(=O)=O)cc5)cc4c32)ccc1C [BMX-IN-1] + CS(=O)(=O)N1CCN(Cc2cc3nc(-c4cccc5[nH]ncc45)nc(N4CCOCC4)c3s2)CC1 [Pictilisib] (partner 1 µM)
Method in brief: as §1

PAC-1 + Luminespib = compound: C=CCc1cccc(/C=N/NC(=O)CN2CCN(Cc3ccccc3)CC2)c1O [PAC-1] + CCNC(=O)c1noc(-c2cc(C(C)C)c(O)cc2O)c1-c1ccc(CN2CCOCC2)cc1 [Luminespib] (partner 0.01 µM)
Method in brief: as §1

Cell Line	relative viability (Ibrutinib + Lapatinib; first compound 0.005 µM)	relative viability (Ibrutinib + Lapatinib; first compound 0.01581 µM)	relative viability (Ibrutinib + Lapatinib; first compound 0.05 µM)	relative viability (Ibrutinib + Lapatinib; first compound 0.5 µM)	relative viability (BMX-IN-1 + Trametinib; first compound 0.02 µM)	relative viability (BMX-IN-1 + Trametinib; first compound 0.2 µM)	relative viability (BMX-IN-1 + Trametinib; first compound 0.6325 µM)	relative viability (BMX-IN-1 + Trametinib; first compound 2 µM)	relative viability (BMX-IN-1 + Pictilisib; first compound 0.02 µM)	relative viability (BMX-IN-1 + Pictilisib; first compound 0.2 µM)	relative viability (BMX-IN-1 + Pictilisib; first compound 2 µM)	relative viability (PAC-1 + Luminespib; first compound 0.02 µM)	relative viability (PAC-1 + Luminespib; first compound 0.06325 µM)	relative viability (PAC-1 + Luminespib; first compound 0.2 µM)	relative viability (PAC-1 + Luminespib; first compound 2 µM)	relative viability (Ibrutinib + Lapatinib; first compound 0.1581 µM)	relative viability (BMX-IN-1 + Pictilisib; first compound 0.6325 µM)
NCI-H1993	0.766	0.576	0.856	0.764	0.531	0.588	0.464	0.56	0.836	0.95	0.821	0.951	0.861	0.399	0.789		
NCI-H2009	0.952	0.945	0.94	0.988	0.254	0.251	0.239	0.29	1.19	0.946	0.765	1.01	1.04	1.03	1.01	0.65	0.905
NCI-H2023	0.622	0.711	0.772	0.868	0.586	0.564	0.623	0.539	0.27	0.241	0.334	0.741	0.703	0.667	0.444	0.818	0.265
NCI-H2085	0.651	0.727	0.75	0.631	0.52	0.75	0.564	0.538	0.433	0.389	0.443	0.42	0.496	0.43	0.484	0.752	0.485
NCI-H2087	1.09	1.17	0.986	1.11	0.204	0.174	0.214	0.218	0.876	0.662	1.15	0.174	0.243	0.21	0.182	1.03	0.954
NCI-H2126		0.726	0.756	0.706	0.55	0.55	0.592	0.603	0.473	0.481	0.51	0.989	0.889	0.93	0.948	0.741	0.568
NCI-H2170	0.247	0.258	0.245	0.26	0.951	1.02	1.09	0.906	0.319	0.312	0.307	0.64	0.607	0.542	0.606	0.25	0.319
NCI-H2228	0.746	0.974	0.833	1.1	0.41	0.596	0.481	0.488	0.578	0.471	0.432	0.16	0.146	0.162	0.182	0.884	0.443
NCI-H2347	0.962	0.899	0.897	0.861	0.295	0.291	0.322	0.292	0.748	0.576	0.748	0.302	0.427	0.536	0.583	0.555	0.613
NCI-H2405	0.942	1.08	0.973	1.09	0.688	0.642	0.659	0.591	0.505	0.444	0.393	0.611	0.652	0.656	0.789		0.484
NCI-H3122	0.953	1.03	1.04	0.99	0.228	0.253	0.238	0.272	0.689	0.632	0.675	0.119	0.0845	0.0804	0.0955	0.948	0.571
PC-3 [JPC-3]	0.389	0.45	0.439	0.444	0.697	0.712	0.738	0.677	0.812	0.839	0.788	0.774	0.644	0.53	0.664	0.413	0.756
PC-14	0.308	0.302	0.285	0.327	0.814	1.01	0.927	0.793	0.952	0.85	0.851	0.127	0.172	0.151	0.252	0.322	0.774
RERF-LC-KJ	0.831	0.931	0.937	0.785	0.967	0.897	0.867	0.909	0.6	0.64	0.484	1.22	1.2	1.16	1.06	0.888	0.607
SK-LU-1	0.88	0.76	0.838	0.905	0.381	0.522	0.481	0.403	0.579	0.567	0.481	0.216	0.375	0.223	0.191	0.937	0.675
SW 1573	1.01	1.22	1.3	1.22	0.657	0.719	0.624	0.507	0.5	0.512	0.478	0.214	0.175	0.223	0.371	1	0.466
UMC-11	0.545	0.978	1.1	0.907	0.831	0.727	0.763	0.738	1.07	0.922	0.912	1.05	0.986	1.04	0.928	0.87	0.892

From the supplement of paper PMC10307832
